This assay concerns P388 leukemia ip, CD2F1 mice, survival T/C. Briefly: NCI In Vivo Anticancer Drug Screen. Data for tumor model P388 Leukemia (intraperitoneal) in CD2F1 (CDF1) mice. The following applies: endpoint: median survival time, higher = longer survival. The method, boiled down:
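Mice carrying the transplanted tumor received test compound or vehicle. Survival was recorded in each group, and the value is the treated-group measurement divided by that of the vehicle-treated control group.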

Setting [1] is: dose: 50.0 mg/kg/injection, schedule: Q01DX005 (ip), vehicle: Klucel (hydroxypropylcellulose) (HPC).
Where [2] appears, read: dose: 100.0 mg/kg/injection, schedule: Q04DX003 (ip), vehicle: Klucel (hydroxypropylcellulose) (HPC).
The mark [3] stands for this setting: dose: 200.0 mg/kg/injection, schedule: Q04DX003 (ip), vehicle: Klucel (hydroxypropylcellulose) (HPC).
Setting [4] is: dose: 400.0 mg/kg/injection, schedule: Q04DX003 (ip), vehicle: Klucel (hydroxypropylcellulose) (HPC).
Setting [5] is: dose: 6.25 mg/kg/injection, schedule: Q01DX009 (ip), vehicle: saline with Tween-80.
[6] abbreviates: dose: 12.5 mg/kg/injection, schedule: Q01DX009 (ip), vehicle: saline with Tween-80.
The mark [7] stands for this setting: dose: 25.0 mg/kg/injection, schedule: Q01DX009 (ip), vehicle: saline with Tween-80.
Setting [8] is: dose: 50.0 mg/kg/injection, schedule: Q01DX009 (ip), vehicle: saline with Tween-80.
Setting [9] is: dose: 100.0 mg/kg/injection, schedule: Q01DX009 (ip), vehicle: saline with Tween-80.

The values that follow come from PubChem BioAssay AID330 (DTP/NCI, 2004).

Where “and” joins values, the source holds several entries; their conditions need not be identical. Equal values may be shown once. Inconclusive results and toxic doses are left out.

As for `CC([NH-])C[NH-].[Cl][Pt+2][Cl]` (stereo unspecified), the T/C was 157 % of control (dose: 3.12 mg/kg/injection, schedule: Q01DX001 (ip), vehicle: Klucel (hydroxypropylcellulose) (HPC)) and 163 % of control (dose: 12.5 mg/kg/injection, schedule: Q01DX001 (ip), vehicle: Klucel (hydroxypropylcellulose) (HPC)).
Take `Cn1c2c(c3cc(Cl)ccc31)-c1ncncc1CC2`: the T/C is, setting by setting: (dose: 12.5 mg/kg/injection, schedule: Q01DX005 (ip), vehicle: Klucel (hydroxypropylcellulose) (HPC)) 97 % of control; (dose: 25.0 mg/kg/injection, schedule: Q01DX005 (ip), vehicle: Klucel (hydroxypropylcellulose) (HPC)) 97 % of control; under setting [1], 101 % of control; (dose: 100.0 mg/kg/injection, schedule: Q04DX002 (ip), vehicle: Klucel (hydroxypropylcellulose) (HPC)) 92 % of control.
As for `O=P(O)(O)SP(=O)(O)O.[Mn]`, the T/C was 105 % of control under setting [2], 110 % of control under setting [3] and 119 % of control under setting [4].
For `COC(=O)NP1(=O)NCc2ccccc2CN1`, the T/C runs as follows: under setting [1], 100 % of control; (dose: 100.0 mg/kg/injection, schedule: Q01DX005 (ip), vehicle: Klucel (hydroxypropylcellulose) (HPC)) 94 % of control; (dose: 200.0 mg/kg/injection, schedule: Q01DX005 (ip), vehicle: Klucel (hydroxypropylcellulose) (HPC)) 94 % of control.
As for `N#Cc1nnn(Cc2ccccc2)c1N`, the T/C is 110 % of control under setting [5]; 110 % of control under setting [6]; 108 % of control under setting [7]; 98 % of control and 86 % of control under setting [8].
For `COSc1ccc([N+](=O)[O-])cc1[N+](=O)[O-]`, the T/C is, setting by setting: under setting [6], 95 % of control; under setting [7], 96 % of control; (dose: 25.0 mg/kg/injection, schedule: Q01DX009 (ip), vehicle: saline) 98 % of control; under setting [8], 103 % of control; (dose: 50.0 mg/kg/injection, schedule: Q01DX009 (ip), vehicle: saline) 102 % of control; under setting [9], 103 % of control. Moreover, the T/C is, setting by setting: (dose: 100.0 mg/kg/injection, schedule: Q01DX009 (ip), vehicle: saline) 108 % of control; (dose: 200.0 mg/kg/injection, schedule: Q01DX009 (ip), vehicle: saline) 111 % of control.
Turning to `COc1ccc(C2C3=C(CC(C)(C)CC3=O)Oc3cc4c(cc32)OCO4)c(OC)c1` (stereo unspecified), the T/C (dose: 60.0 mg/kg/injection, schedule: Q01DX005 (ip), vehicle: saline with Tween-80) is 99 % of control; the T/C (dose: 120.0 mg/kg/injection, schedule: Q01DX005 (ip), vehicle: saline with Tween-80) is 93 % of control; the T/C (dose: 240.0 mg/kg/injection, schedule: Q01DX005 (ip), vehicle: saline with Tween-80) is 92 % of control.
Take `O=C(O)CSc1cc(Cl)ccc1Cl`: the T/C is 102 % of control (dose: 12.5 mg/kg/injection, schedule: Q04DX003 (ip), vehicle: Klucel (hydroxypropylcellulose) (HPC)); 100 % of control (dose: 25.0 mg/kg/injection, schedule: Q04DX003 (ip), vehicle: Klucel (hydroxypropylcellulose) (HPC)); 102 % of control (dose: 50.0 mg/kg/injection, schedule: Q04DX003 (ip), vehicle: Klucel (hydroxypropylcellulose) (HPC)); 103 % of control under setting [2].
With `CCC[CH2][Sn]([CH2]CCC)([O]C(=O)CCC(C)=O)[O]C(=O)CCC(C)=O`, the T/C was 118 % of control and 119 % of control (dose: 3.12 mg/kg/injection, schedule: Q01DX009 (ip), vehicle: Klucel (hydroxypropylcellulose) (HPC)); 163 % of control (dose: 12.5 mg/kg/injection, schedule: Q01DX009 (ip), vehicle: Klucel (hydroxypropylcellulose) (HPC)).
For the compound `CC(N)(CCS(=O)(=O)CP(=O)(O)O)C(=O)O` (stereo unspecified), the T/C runs as follows: (dose: 60.0 mg/kg/injection, schedule: Q01DX005 (ip), vehicle: saline) 103 % of control; (dose: 120.0 mg/kg/injection, schedule: Q01DX005 (ip), vehicle: saline) 97 % of control; (dose: 240.0 mg/kg/injection, schedule: Q01DX005 (ip), vehicle: saline) 93 % of control.
With `CC(=O)NCc1ccc(N2C(N)=NC(N)=NC2(C)C)cc1`, the T/C was 100 % of control (dose: 25.0 mg/kg/injection, schedule: Q04DX002 (ip), vehicle: saline); 116 % of control (dose: 50.0 mg/kg/injection, schedule: Q04DX002 (ip), vehicle: saline); 100 % of control (dose: 100.0 mg/kg/injection, schedule: Q04DX002 (ip), vehicle: saline).
Turning to `O=C(O)C(/N=N\c1nn[nH]n1)/N=N\c1ncn[nH]1` (stereo unspecified), the T/C is, setting by setting: under setting [2], 102 % of control; under setting [3], 108 % of control; under setting [4], 101 % of control.
For `O=C(NCc1nc2ncc(Br)cc2[nH]1)c1ccccc1`, the T/C reads like this: (dose: 100.0 mg/kg/injection, schedule: Q01DX001 (ip), vehicle: saline with Tween-80) 100 % of control; (dose: 200.0 mg/kg/injection, schedule: Q01DX001 (ip), vehicle: saline with Tween-80) 100 % of control; (dose: 400.0 mg/kg/injection, schedule: Q01DX001 (ip), vehicle: saline with Tween-80) 98 % of control.
Take `NNS(=O)(=O)c1cccc([N+](=O)[O-])c1`: the T/C is 107 % of control (dose: 12.5 mg/kg/injection, schedule: Q01DX009 (ip), vehicle: other); 98 % of control (dose: 25.0 mg/kg/injection, schedule: Q01DX009 (ip), vehicle: other); 103 % of control (dose: 50.0 mg/kg/injection, schedule: Q01DX009 (ip), vehicle: other).
Turning to `C=C1C(=O)OC2/C=C(\C)CC/C=C(/C(=O)OC)C(OC(=O)C(C)C(C)O)C(OC(=O)C(C)(O)C(C)O)C12` (stereo unspecified), the T/C is, setting by setting: (dose: 6.0 mg/kg/injection, schedule: Q01DX009 (ip), vehicle: Klucel (hydroxypropylcellulose) (HPC)) 122 % of control; (dose: 8.0 mg/kg/injection, schedule: Q01DX009 (ip), vehicle: Klucel (hydroxypropylcellulose) (HPC)) 122 % of control; (dose: 12.0 mg/kg/injection, schedule: Q01DX009 (ip), vehicle: Klucel (hydroxypropylcellulose) (HPC)) 105 % of control.
In the case of `Cc1ccc(S(=O)(=O)N/N=C/c2c(Br)nc3n2CCS3)cc1`, the T/C (dose: 100.0 mg/kg/injection, schedule: Q01DX001 (ip), vehicle: Klucel (hydroxypropylcellulose) (HPC)) was 94 % of control; the T/C (dose: 200.0 mg/kg/injection, schedule: Q01DX001 (ip), vehicle: Klucel (hydroxypropylcellulose) (HPC)) is 89 % of control; the T/C (dose: 400.0 mg/kg/injection, schedule: Q01DX001 (ip), vehicle: Klucel (hydroxypropylcellulose) (HPC)) was 92 % of control.
`FC(F)(F)c1cc([C@H]2[C@@H]3CCCCN32)c2cccc(C(F)(F)F)c2n1` (stereo partly specified): the T/C is, setting by setting: (dose: 12.5 mg/kg/injection, schedule: Q04DX003 (ip), vehicle: distilled water + Tween-80) 93 % of control; (dose: 25.0 mg/kg/injection, schedule: Q04DX003 (ip), vehicle: distilled water + Tween-80) 97 % of control; (dose: 50.0 mg/kg/injection, schedule: Q04DX003 (ip), vehicle: distilled water + Tween-80) 96 % of control; (dose: 100.0 mg/kg/injection, schedule: Q04DX003 (ip), vehicle: distilled water + Tween-80) 95 % of control; (dose: 200.0 mg/kg/injection, schedule: Q04DX003 (ip), vehicle: distilled water + Tween-80) 99 % of control; (dose: 400.0 mg/kg/injection, schedule: Q04DX003 (ip), vehicle: distilled water + Tween-80) 103 % of control.
In the case of `O=C(Nc1ccc(Cl)c(Cl)c1)Nc1ccc(Cl)c(Cl)c1` (tested in a mixture with another compound), the T/C is, setting by setting: (dose: 3.13 mg/kg/injection, schedule: Q01DX009 (ip), vehicle: saline with Tween-80) 97 % of control; under setting [5], 88 % of control; under setting [6], 94 % of control.
On to `Cc1ccc(Nc2ccc(Nc3ccc(C)cc3)c3c2C(=O)c2cccc(O)c2C3=O)cc1`, for which the T/C is, setting by setting: under setting [8], 101 % of control; under setting [9], 95 % of control; (dose: 200.0 mg/kg/injection, schedule: Q01DX009 (ip), vehicle: saline with Tween-80) 97 % of control.
Regarding `CN(N=O)C(=O)NCCCCCNC(=O)N(C)N=O`, the T/C is, setting by setting: (dose: 100.0 mg/kg/injection, schedule: Q04DX003 (ip), vehicle: saline with Tween-80) 100 % of control; (dose: 200.0 mg/kg/injection, schedule: Q04DX003 (ip), vehicle: saline with Tween-80) 104 % of control; (dose: 400.0 mg/kg/injection, schedule: Q01DX009 (ip), vehicle: saline with Tween-80) 150 % of control and 163 % of control; (dose: 400.0 mg/kg/injection, schedule: Q04DX003 (ip), vehicle: saline with Tween-80) 104 % of control; (dose: 600.0 mg/kg/injection, schedule: Q01DX009 (ip), vehicle: saline with Tween-80) 163 % of control.
